{"source": "patent US20230391760A1", "about": "“HETEROCYCLIC GLP-1 AGONISTS” (Gasherbrum Bio, Inc., priority 2020, published 2023)", "data": [{"target": "GLP-1 Receptor (Homo sapiens, UniProt P43220)", "sequence (P43220 24-463, species assumed)": "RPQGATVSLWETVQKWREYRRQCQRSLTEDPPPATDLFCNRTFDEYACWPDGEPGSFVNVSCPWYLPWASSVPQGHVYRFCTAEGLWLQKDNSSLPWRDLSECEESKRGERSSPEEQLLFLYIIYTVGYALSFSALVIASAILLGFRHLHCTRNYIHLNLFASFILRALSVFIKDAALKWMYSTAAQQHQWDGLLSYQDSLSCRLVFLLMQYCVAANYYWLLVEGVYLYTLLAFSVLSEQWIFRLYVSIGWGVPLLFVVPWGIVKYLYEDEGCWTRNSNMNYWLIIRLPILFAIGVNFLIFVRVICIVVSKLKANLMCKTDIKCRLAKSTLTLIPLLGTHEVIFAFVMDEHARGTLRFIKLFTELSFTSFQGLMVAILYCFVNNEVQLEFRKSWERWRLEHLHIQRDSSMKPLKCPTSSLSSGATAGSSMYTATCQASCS", "test": "GLP-1R agonist cAMP stimulation assay (HEK293/GLP1R/CRE-LUC cells, cAMP dynamic 2 Kit)", "type": "cell-based", "conditions": "HEK293/CRE-Luc cell line stably expressing the GLP-1 Receptor, 30 min at 37° C.", "method_in_brief": "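cAMP measured by HTRF competition (d2-labelled cAMP with cryptate antibody, 1 h, room temperature, protected from light). Before that, GLP1R/CRE-Luc HEK293 cells (1000/well) were exposed for 30 min at 37 °C to half-log compound dilutions in DPBS containing IBMX 0.5 mM and BSA 0.1%.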", "units": {"EC50": "nM"}, "values": [{"smiles": "CC1(c2ccc(Cl)cc2F)Oc2cccc(C3CCN(Cc4nc5cc(-c6nc(Br)ns6)ccc5n4C[C@@H]4CCO4)CC3)c2O1", "note": "(stereo partly drawn) [Compound 409a, 5-(3-bromo-1,2,4-thiadiazol-5-yl)-2-({4-[2-(4-chloro-2-fluorophenyl)-2-methyl-2H-1,3-benzodioxol-4-yl]piperidin-1-yl}methyl)-1-{[(2S)-oxetan-2-yl]methyl}-1H-1,3-benzodiazole]", "EC50": 6.5}, {"smiles": "C[C@]1(c2ccc(Cl)cn2)Oc2cccc(C3CCN(Cc4nc5cc(-c6nnn[nH]6)nnc5n4C[C@@H]4CCO4)CC3)c2O1", "note": "[Compound 461a, 5-chloro-2-[(2S)-2-methyl-4-{1-[(7-{[(2S)-oxetan-2-yl]methyl}-3-(1H-1,2,3,4-tetrazol-5-yl)-7H-imidazo[4,5-c]pyridazin-6-yl)methyl]piperidin-4-yl}-2H-1,3-benzodioxol-2-yl]pyridine]", "EC50": 0.23}, {"smiles": "O=C(Nc1ccc2c(c1)nc(CN1CCC(c3cccc(OCc4ccc(Cl)cc4F)n3)CC1)n2C[C@@H]1CCO1)c1ccncc1", "note": "[Compound 171a, N-{2-[(4-{6-[(4-chloro-2-fluorophenyl)methoxy]pyridin-2-yl}piperidin-1-yl)methyl]-1-{[(2S)-oxetan-2-yl]methyl}-1H-1,3-benzodiazol-5-yl}pyridine-4-carboxamide]", "EC50": 0.27}, {"smiles": "C[C@]1(c2ccc(Cl)cn2)Oc2cccc(C3CCN(Cc4nc5cc(-c6nnc(C(F)(F)F)[nH]6)nnc5n4C[C@@H]4CCO4)CC3)c2O1", "note": "[Compound 462a, 5-chloro-2-[(2S)-2-methyl-4-{1-[(7-{[(2S)-oxetan-2-yl]methyl}-3-[5-(trifluoromethyl)-4H-1,2,4-triazol-3-yl]-7H-imidazo[4,5-c]pyridazin-6-yl)methyl]piperidin-4-yl}-2H-1,3-benzodioxol-2-yl]pyridine]", "EC50": 0.045}, {"smiles": "Fc1cc(Cl)ccc1COc1cccc(C2CCN(Cc3nc4cc(-c5nnc(C(F)(F)F)[nH]5)cnc4n3C[C@@H]3CCO3)CC2F)n1", "note": "(stereo partly drawn) [Compound 500a, 2-[(4-chloro-2-fluorophenyl)methoxy]-6-[(3,4-trans)-3-fluoro-1-[(3-{[(2S)-oxetan-2-yl]methyl}-6-[5-(trifluoromethyl)-4H-1,2,4-triazol-3-yl]-3H-imidazo[4,5-b]pyridin-2-yl)methyl]piperidin-4-yl]pyridine]", "EC50": 0.078}, {"smiles": "O=c1[nH]c(-c2cc3nc(CN4CC=C(c5cccc(OCc6ccc(Cl)cc6F)c5)CC4)n(C[C@@H]4CCO4)c3cn2)no1", "note": "[Compound 308a, 3-{2-[(4-{3-[(4-chloro-2-fluorophenyl)methoxy]phenyl}-1,2,3,6-tetrahydropyridin-1-yl)methyl]-3-{[(2S)-oxetan-2-yl]methyl}-3H-imidazo[4,5-c]pyridin-6-yl}-4,5-dihydro-1,2,4-oxadiazol-5-one]", "EC50": 0.5}, {"smiles": "O=c1[nH]c(-c2cc3nc(CN4CCC(c5ccc(F)c(OCc6ccc(Cl)cc6F)n5)CC4)n(C[C@@H]4CCO4)c3cn2)no1", "note": "[Compound 438a, 3-{2-[(4-{6-[(4-chloro-2-fluorophenyl)methoxy]-5-fluoropyridin-2-yl}piperidin-1-yl)methyl]-3-{[(2S)-oxetan-2-yl]methyl}-3H-imidazo[4,5-c]pyridin-6-yl}-4,5-dihydro-1,2,4-oxadiazol-5-one]", "EC50": 0.026}, {"smiles": "C[C@]1(c2ccc(Cl)cc2F)Oc2cccc(C3CCN(Cc4nc5cc(-c6noc(=O)[nH]6)nnc5n4C[C@@H]4CCO4)CC3)c2O1", "note": "[Compound 348a, 3-[6-({4-[(2S)-2-(4-chloro-2-fluorophenyl)-2-methyl-2H-1,3-benzodioxol-4-yl]piperidin-1-yl}methyl)-7-{[(2S)-oxetan-2-yl]methyl}-7H-imidazo[4,5-c]pyridazin-3-yl]-4,5-dihydro-1,2,4-oxadiazol-5-one]", "EC50": 0.062}, {"smiles": "CC1(c2ccc(C#N)cc2F)Oc2cccc(C3CCN(Cc4nc5cc(-c6nnc(C7CC7)[nH]6)cnc5n4C[C@@H]4CCO4)CC3)c2O1", "note": "(stereo partly drawn) [Compound 276a, 4-[4-(1-{[6-(5-cyclopropyl-4H-1,2,4-triazol-3-yl)-3-{[(2S)-oxetan-2-yl]methyl}-3H-imidazo[4,5-b]pyridin-2-yl]methyl}piperidin-4-yl)-2-methyl-2H-1,3-benzodioxol-2-yl]-3-fluorobenzonitrile]", "EC50": 0.56}, {"smiles": "CC1(c2ccc(Cl)cc2F)Oc2cccc(C3CCN(Cc4nc5cc(-c6n[nH]c(=O)[nH]6)ccc5n4C[C@@H]4CCO4)CC3)c2O1", "note": "(stereo partly drawn) [Compound 355a, 3-[2-({4-[2-(4-chloro-2-fluorophenyl)-2-methyl-2H-1,3-benzodioxol-4-yl]piperidin-1-yl}methyl)-1-{[(2S)-oxetan-2-yl]methyl}-1H-1,3-benzodiazol-5-yl]-4,5-dihydro-1H-1,2,4-triazol-5-one]", "EC50": 7}, {"smiles": "Fc1cc(Cl)ccc1COc1cccc(C2CCN(Cc3nc4cc(-c5cn(C6CCCOC6)nn5)ccc4n3C[C@@H]3CCO3)CC2)n1", "note": "(stereo partly drawn) [Compound 209a, 2-[(4-{6-[(4-chloro-2-fluorophenyl)methoxy]pyridin-2-yl}piperidin-1-yl)methyl]-5-[1-(oxan-3-yl)-1H-1,2,3-triazol-4-yl]-1-{[(2S)-oxetan-2-yl]methyl}-1H-1,3-benzodiazole]", "EC50": 3.2}, {"smiles": "Cc1nnc(-c2cc3nc(CN4CCC(c5cccc6c5O[C@@](C)(c5ccc(C#N)cc5F)O6)CC4)n(C[C@@H]4CCO4)c3cn2)[nH]1", "note": "[Compound 288a, 3-fluoro-4-[(2S)-2-methyl-4-(1-{[6-(5-methyl-4H-1,2,4-triazol-3-yl)-3-{[(2S)-oxetan-2-yl]methyl}-3H-imidazo[4,5-c]pyridin-2-yl]methyl}piperidin-4-yl)-2H-1,3-benzodioxol-2-yl]benzonitrile]", "EC50": 0.0087}, {"smiles": "CC1(c2ccc(Cl)cc2F)Oc2cccc(C3CCN(Cc4nc5cc(-c6nnn[nH]6)ccc5n4C[C@@H]4CCO4)CC3)c2O1", "note": "(stereo partly drawn) [Compound 232a, 2-((4-(2-(4-chloro-2-fluorophenyl)-2-methylbenzo[d][1,3]dioxol-4-yl)piperidin-1-yl)methyl)-1-(((S)-oxetan-2-yl)methyl)-5-(1H-tetrazol-5-yl)-1H-benzo[d]imidazole]", "EC50": 0.16}, {"smiles": "N#Cc1ccc(COc2cc(C3CCN(Cc4nc5cc(-c6nnc(C(F)(F)F)[nH]6)ncc5n4C[C@@H]4CCO4)CC3)ccc2F)c(F)c1", "note": "[Compound 471a, 3-fluoro-4-[(2-fluoro-5-{1-[(3-{[(2S)-oxetan-2-yl]methyl}-6-[5-(trifluoromethyl)-4H-1,2,4-triazol-3-yl]-3H-imidazo[4,5-c]pyridin-2-yl)methyl]piperidin-4-yl}phenoxy)methyl]benzonitrile]", "EC50": 0.11}, {"smiles": "C[C@]1(c2ccc(C#N)cc2F)Oc2cccc(C3CCN(Cc4nc5cc(-c6nnc(C(F)(F)F)[nH]6)nnc5n4C[C@@H]4CCO4)CC3)c2O1", "note": "[Compound 447a, 3-fluoro-4-[(2S)-2-methyl-4-{1-[(7-{[(2S)-oxetan-2-yl]methyl}-3-[5-(trifluoromethyl)-4H-1,2,4-triazol-3-yl]-7H-imidazo[4,5-c]pyridazin-6-yl)methyl]piperidin-4-yl}-2H-1,3-benzodioxol-2-yl]benzonitrile]", "EC50": 0.019}, {"smiles": "C[C@]1(c2ccc(Cl)cc2F)Oc2cccc(C3CCN(Cc4nc5cc(-c6nnc(C(F)(F)F)[nH]6)nnc5n4C[C@@H]4CCO4)CC3)c2O1", "note": "[Compound 359a, 4-[(2S)-2-(4-chloro-2-fluorophenyl)-2-methyl-2H-1,3-benzodioxol-4-yl]-1-[(7-{[(2S)-oxetan-2-yl]methyl}-3-[5-(trifluoromethyl)-4H-1,2,4-triazol-3-yl]-7H-imidazo[4,5-c]pyridazin-6-yl)methyl]piperidine]", "EC50": 0.014}]}]}
